Laboratory results from ChEMBL document CHEMBL3885861, “Open TG-GATES”.

Organism: Rattus norvegicus
Test: Open TG-GATES - Regimen: Single
Type: toxicity, organism-based, Sprague-Dawley
Set-up: regimen Single, gender Male, age 6 weeks
Conditions: in vivo, po, route gavage; for gamma-GTP / ALP / ALT / AST / BUN / CRE / Ca / DBIL / GLC / K / LDH / Na / PL / RALB / TBIL / TC / TG / TP / IP: tissue Plasma; for APTT / Bas / Eos / Fbg / Hb / Ht / Lym / MCH / MCHC / MCV / Mono / Neu / PT / RBC / Ret / WBC / Plat: tissue Blood; for KIDNEY_L / KIDNEY_R / KIDNEY_TOTAL: tissue Kidney; for LIVER: tissue Liver
[1] = 100 mg/kg, 3 h, dose level High
[2] = 100 mg/kg, 6 h, dose level High
[3] = 100 mg/kg, 9 h, dose level High
[4] = 100 mg/kg, 24 h, dose level High

CSc1ccc2c(c1)N(CCC1CCCCN1C)c1ccccc1S2 (stereo not drawn) [THIORIDAZINE]
gamma-GTP (30 mg/kg, 24 h, dose level Middle): 1 IU/L | TERMINAL_BW [1]: 217.7 g | APTT [1]: 16.7 s | Bas [1]: 0% | Eos [1]: 1% | Fbg [1]: 205.2 mg/dL | Hb [1]: 12.6 g/dL | Ht [1]: 38.2% | Lym [1]: 70.2% | MCH [1]: 21.9 pg | MCHC [1]: 33.1% | MCV [1]: 66.3 fL | Mono [1]: 11% | Neu [1]: 17.8% | PT [1]: 12.2 s | RBC [1]: 576.8 x10_4/ul | Ret [1]: 8.6% | WBC [1]: 56.2 x10_2/uL | KIDNEY_L [1]: 1 g | KIDNEY_R [1]: 1 g | KIDNEY_TOTAL [1]: 2 g | LIVER [1]: 10.5 g | ALP [1]: 990.6 IU/L | ALT [1]: 41.8 IU/L | AST [1]: 70.2 IU/L | BUN [1]: 11.2 mg/dL | CRE [1]: 0.6 mg/dL | Ca [1]: 11 mg/dL | DBIL [1]: 0.018 mg/dL | GLC [1]: 215 mg/dL | K [1]: 4.2 meq/L | LDH [1]: 163.8 IU/L | Na [1]: 139.8 meq/L | PL [1]: 138.2 mg/dL | RALB [1]: 3.7 g/dL | TBIL [1]: 0.3 mg/dL | TC [1]: 80.2 mg/dL | TG [1]: 34.4 mg/dL | TP [1]: 5.3 g/dL | gamma-GTP [1]: 1 IU/L | TERMINAL_BW [2]: 215 g | APTT [2]: 16.9 s | Bas [2]: 0% | Eos [2]: 0.6% | Fbg [2]: 204.6 mg/dL | Hb [2]: 12.5 g/dL | Ht [2]: 37.7% | Lym [2]: 71.6% | MCH [2]: 21.6 pg | MCHC [2]: 33.1% | MCV [2]: 65.1 fL | Mono [2]: 8.6% | Neu [2]: 18.6% | PT [2]: 12.2 s | Plat [2]: 106.5 x10_4/uL | RBC [2]: 579 x10_4/ul | Ret [2]: 7.8% | WBC [2]: 84.2 x10_2/uL | KIDNEY_L [2]: 1 g | KIDNEY_R [2]: 1 g | KIDNEY_TOTAL [2]: 2 g | LIVER [2]: 9.4 g | ALP [2]: 868.4 IU/L | ALT [2]: 30.8 IU/L | AST [2]: 63.8 IU/L | BUN [2]: 8.2 mg/dL | CRE [2]: 0.5 mg/dL | Ca [2]: 10.5 mg/dL | DBIL [2]: 0.016 mg/dL | GLC [2]: 211 mg/dL | IP [2]: 10.6 mg/dL | K [2]: 4.5 meq/L | LDH [2]: 166.6 IU/L | Na [2]: 139.6 meq/L | PL [2]: 135.2 mg/dL | RALB [2]: 3.7 g/dL | TBIL [2]: 0.4 mg/dL | TC [2]: 77.8 mg/dL | TG [2]: 19.6 mg/dL | TP [2]: 5.4 g/dL | gamma-GTP [2]: 2.6 IU/L | TERMINAL_BW [3]: 210.8 g | APTT [3]: 16.3 s | Bas [3]: 0% | Eos [3]: 0.4% | Fbg [3]: 215.6 mg/dL | Hb [3]: 12.5 g/dL | Ht [3]: 38.3% | Lym [3]: 76.8% | MCH [3]: 21 pg | MCHC [3]: 32.8% | MCV [3]: 64.1 fL | Mono [3]: 7.2% | Neu [3]: 15.6% | PT [3]: 12.1 s | Plat [3]: 110.2 x10_4/uL | RBC [3]: 598.4 x10_4/ul | Ret [3]: 7.3% | WBC [3]: 80.7 x10_2/uL | KIDNEY_L [3]: 1 g | KIDNEY_R [3]: 1 g | KIDNEY_TOTAL [3]: 2 g | LIVER [3]: 9.4 g | ALP [3]: 850.6 IU/L | ALT [3]: 31.6 IU/L | AST [3]: 61.2 IU/L | BUN [3]: 9.6 mg/dL | CRE [3]: 0.5 mg/dL | Ca [3]: 10.6 mg/dL | DBIL [3]: 0.018 mg/dL | GLC [3]: 223.4 mg/dL | IP [3]: 9.8 mg/dL | K [3]: 4.2 meq/L | LDH [3]: 144.8 IU/L | Na [3]: 141.4 meq/L | PL [3]: 155.2 mg/dL | RALB [3]: 3.7 g/dL | TBIL [3]: 0.4 mg/dL | TC [3]: 84 mg/dL | TG [3]: 28.4 mg/dL | TP [3]: 5.4 g/dL | gamma-GTP [3]: 1.2 IU/L | TERMINAL_BW [4]: 217.8 g | APTT [4]: 16.1 s | Bas [4]: 0% | Eos [4]: 1% | Fbg [4]: 209 mg/dL | Hb [4]: 13.5 g/dL | Ht [4]: 40.5% | Lym [4]: 84.4% | MCH [4]: 21.5 pg | MCHC [4]: 33.4% | MCV [4]: 64.6 fL | Mono [4]: 4.6% | Neu [4]: 10% | PT [4]: 12.2 s | Plat [4]: 125.1 x10_4/uL | RBC [4]: 628 x10_4/ul | Ret [4]: 7.3% | WBC [4]: 102 x10_2/uL | KIDNEY_L [4]: 1 g | KIDNEY_R [4]: 1 g | KIDNEY_TOTAL [4]: 2.1 g | LIVER [4]: 10.9 g | ALP [4]: 952.2 IU/L | ALT [4]: 35.4 IU/L | AST [4]: 62.4 IU/L | BUN [4]: 21.4 mg/dL | CRE [4]: 0.5 mg/dL | Ca [4]: 11.2 mg/dL | DBIL [4]: 0.022 mg/dL | GLC [4]: 210.8 mg/dL | IP [4]: 9.8 mg/dL | K [4]: 4.5 meq/L | LDH [4]: 166.8 IU/L | Na [4]: 140.4 meq/L | PL [4]: 172.6 mg/dL | RALB [4]: 4.2 g/dL | TBIL [4]: 0.3 mg/dL | TC [4]: 91.4 mg/dL | TG [4]: 97.8 mg/dL | TP [4]: 6.1 g/dL | gamma-GTP [4]: 1.4 IU/L
